# Tested on: Aβ40 in conditioned medium of cells stably expressing Amyloid Precursor Protein (APP)
# Assay: BACE cell-based assay: Aβ40 in conditioned medium by sandwich ELISA
# Conditions: cell based assay data of Table 4; unit inferred; read-out: Cell Assay
# Protocol: The cell-based assay measures inhibition or reduction of Aβ40 in conditioned medium of test compound treated cells expressing amyloid precursor protein.
# Cells stably expressing Amyloid Precursor Protein (APP) were plated at a density of 40K cells/well in 96 well plates (Costar). The cells were cultivated for 24 hours at 37° C. and 5% CO2 in DMEM supplemented with 10% FBS. The test compounds were then added to cells in 10-point dose response concentrations with the starting concentration being either 100 μM or 10 μM. The compounds were diluted from stock solutions in DMSO and the final DMSO concentration of the test compounds on cells was 0.1%. After 24 h of incubation with the test compounds the supernatant conditioned media was collected and the Aβ40 levels were determined using a sandwich ELISA. The ICso of the compound was calculated from the percent of control or percent inhibition of Aβ40 as a function of the concentration of the test compound.
# The sandwich ELISA to detect Aβ40 was performed in 96 well microtiter plates, which were pre-treated with goat anti-rabbit IgG (Pierce). The capture and detecting antibody pair that were used to detect Aβ40 from cell supernatants were affinity purified pAb40 (Biosource) and biotinylated 6E10 (Signet Labs Inc.), respectively. The optimal concentration for the pAb40 antibody was 3 μg/ml in Superblock/TBS (Pierce) that was supplemented with 0.05% Tween 20 (Sigma).
# Cellular supernatants were incubated with the capture antibody for 3 h at 4° C., followed by 3 wash steps in TBS-tween (0.05%). The detecting antibody incubation was for 2 h at 4° C., again followed by the wash steps as described previously. The final readout of the ELISA is Time-Resolved Fluorescence (counts per minute) using Delfia reagents Streptavidin-Europium and Enhancement solutions (Perkin Elmer) and the Victor 2 multilabel counter (Perkin Elmer).
row,IC50,SMILES
1,1080 nM,CC(=O)N[C@@H](Cc1ccc(F)cc1)[C@H](O)CN[C@H]1CC2(CCC2)Oc2ncc([C@@H](F)C(C)(C)C)cc21 [compound 674]
2,111 nM,CC(=O)N[C@@H](Cc1ccc(F)cc1)[C@@H](O)CN[C@H]1CC2(CCC2)Oc2ncc(CC(C)(C)F)cc21 [compound 574]
3,52.9 nM,"CC(=O)N[C@@H](Cc1cc2ccccc2o1)[C@H](O)CN[C@H]1CC2(CCC2)Oc2ncc(CC(C)(C)C)cc21 [compound 646, N-((1S,2R)-1-(1-benzofuran-2-ylmethyl)-3-(((4′S)-6′-(2,2-dimethylpropyl)-3′,4′-dihydrospiro[cyclobutane-1,2′-pyrano[2,3-b]pyridin]-4′-yl)amino)-2-hydroxypropyl)acetamide]"
4,22.1 nM,CC(=O)N[C@@H](Cc1ccc(F)cc1)[C@H](O)CN[C@H]1CC2(CCC2)Oc2cnc(CC(C)(C)C)cc21 [compound 570]
5,2.98 nM,"CC(=O)N[C@@H](Cc1cccc(F)c1)[C@H](O)CN[C@H]1C[C@]2(C[C@H](C)C2)Oc2ncc(CC(C)C)cc21 [compound 617, N-((1S,2R)-1-((3-fluorophenyl)methyl)-2-hydroxy-3-(((1s,3R,4′S)-3-methyl-6′-(2-methylpropyl)-3′,4′-dihydrospiro[cyclobutane-1,2′-pyrano[2,3-b]pyridin]-4′-yl)amino)propyl)acetamide]"
6,137 nM,COCC(C)(C)Cc1cnc2c(c1)[C@@H](NC[C@@H](O)[C@H](Cc1ccc(F)cc1)NC(C)=O)CC1(CCC1)O2 [compound 581]
7,3.11 nM,CC(=O)N[C@@H](Cc1ccc(F)c(Cl)c1)[C@H](O)CN[C@H]1CC2(CCC2)Oc2ncc(CC(C)(C)C)cc21 [compound 706]
8,924 nM,CCc1cc(NC)c2c(c1)[C@@H](NC[C@@H](O)[C@H](Cc1ccccc1)NC(C)=O)CC(C)(C)O2 [compound 535]
9,5.22 nM,CC(=O)N[C@@H](Cc1cccc(F)c1)[C@H](O)CN[C@H]1CC2(CCC2)Oc2cnc(CC(C)(C)C)cc21 [compound 569]
10,60 nM,COC(=O)N[C@@H](Cc1ccc(F)cc1)[C@H](O)CN[C@H]1CC2(CCC2)Oc2ncc(CC(C)(C)C)cc21 [compound 577]
11,4.61 nM,CC(=O)N[C@@H](Cc1ccccc1)[C@H](O)CN[C@H]1CC(C)(C)Oc2ncc(CC(C)(C)C)cc21 [compound 545]
12,≥ 10000 nM,CC(=O)N[C@@H](Cc1ccc(Cl)cc1)[C@H](O)CN[C@H]1C[C@@]2(CCOC2)Oc2ncc(CC(C)(C)C)cc21 [compound 669]
13,103 nM,COc1nc(CC(C)(C)C)cc2c1OC1(CCC1)C[C@@H]2NC[C@@H](O)[C@H](Cc1ccc(F)cc1)NC(C)=O [compound 613]
14,12.6 nM,CC(=O)N[C@@H](Cc1ccc(Cl)cc1)[C@H](O)CN[C@H]1CC2(CCC2)Oc2ncc(CC(C)(C)C)cc21 [compound 707]
15,26.8 nM,CC(=O)N[C@@H](Cc1cc(F)cc(F)c1)[C@H](O)CN[C@H]1CC2(CCC2)Oc2c1cc(CC(C)(C)C)nc2N(C)C [compound 598]
16,31.8 nM,CC(=O)N[C@@H](Cc1ccccc1)[C@H](O)CN[C@H]1CC2(CCC2)Oc2c1cc(CC(C)(C)C)nc2N(C)C [compound 582]
17,6.82 nM,"CC(=O)N[C@@H](Cc1nc(Cl)cs1)[C@H](O)CN[C@H]1CC2(CCC2)Oc2ncc(CC(C)(C)C)cc21 [compound 641, N-((1S,2R)-1-((4-chloro-1,3-thiazol-2-yl)methyl)-3-(((4′S)-6′-(2,2-dimethylpropyl)-3′,4′-dihydrospiro[cyclobutane-1,2′-pyrano[2,3-b]pyridin]-4′-yl)amino)-2-hydroxypropyl)acetamide]"
18,8.13 nM,CC(=O)N[C@@H](Cc1ccc(F)cc1)[C@H](O)CN[C@H]1CC2(CCC2)Oc2ncc(CC(C)(C)C)cc21 [compound 568]
19,10.5 nM,COCC(=O)N[C@@H](Cc1ccc(F)cc1)[C@H](O)CN[C@H]1CC2(CCC2)Oc2ncc(CC(C)(C)C)cc21 [compound 628]
20,5.16 nM,"CC(=O)N[C@@H](Cc1ccnc(OCC(F)(F)F)c1)[C@H](O)CN[C@H]1CC2(CCC2)Oc2ncc(CC(C)(C)C)cc21 [compound 645, N-((1S,2R)-3-(((4′S)-6′-(2,2-dimethylpropyl)-3′,4′-dihydrospiro[cyclobutane-1,2′-pyrano[2,3-b]pyridin]-4′-yl)amino)-2-hydroxy-1-((2-((2,2,2-trifluoroethyl)oxy)-4-pyridinyl)methyl)propyl)acetamide]"
21,13.8 nM,"CC(=O)N[C@@H](Cc1ccccc1)[C@H](O)CN[C@H]1CC(C)(C)Cc2sc(CC(C)(C)C)cc21 [compound 654, N-((1S,2R)-3-(((4S)-2-(2,2-dimethylpropyl)-6,6-dimethyl-4,5,6,7-tetrahydro-1-benzothien-4-yl)amino)-2-hydroxy-1-(phenylmethyl)propyl)acetamide]"

# Same assay, conditions: cell based assay data, Table 4; unit inferred; read-out: Cell Assay
row,SMILES,IC50
1,CC(=O)N[C@@H](Cc1cc(F)cc(F)c1)[C@H](O)CN[C@H]1CC2(CCC2)Oc2ncc(-n3ccnc3)cc21 [compound 747],498 nM
2,COC(=O)c1ccc2c(c1)[C@@H](NC[C@@H](O)[C@H](Cc1cccc(C#N)c1)NC(C)=O)CC1(CCC1)O2 [compound 729],1450 nM
3,"C=CC[C@H](NC(C)=O)[C@H](O)CN[C@H]1CC2(CCC2)Oc2ncc(CC(C)(C)F)cc21 [compound 741, N-((1S)-1-((1R)-2-(((4′S)-6′-(2-fluoro-2-methylpropyl)-3′,4′-dihydrospiro[cyclobutane-1,2′-pyrano[2,3-b]pyridin]-4′-yl)amino)-1-hydroxyethyl)-3-buten-1-yl)acetamide]",193 nM
4,CC(=O)N[C@@H](Cc1ccccc1)[C@H](O)CN[C@H]1CC2(CCC2)Oc2ccc(NC(C)(C)C)cc21 [compound 772],981 nM
5,CC(=O)N[C@@H](Cc1cc(F)cc(F)c1)[C@H](O)CN[C@H]1CC2(CCC2)Oc2ccc(-c3ccn(C)n3)cc21 [compound 784],1650 nM
6,"C=CCC[C@H](NC(C)=O)[C@H](O)CN[C@H]1C[C@]2(C[C@H](C)C2)Oc2ncc(CC(C)(C)C)cc21 [compound 717, N-((1S)-1-((1R)-2-(((1s,3R,4′S)-6′-(2,2-dimethylpropyl)-3-methyl-3′,4′-dihydrospiro[cyclobutane-1,2′-pyrano[2,3-b]pyridin]-4′-yl)amino)-1-hydroxyethyl)-4-penten-1-yl)acetamide]",52.5 nM
7,"CC(=O)N[C@@H](Cc1ccc(F)cc1)[C@H](O)CN[C@H]1C[C@]2(C[C@H](C)C2)Oc2ncc(CC(C)(C)C)cc21 [compound 767, N-((1S,2R)-3-(((1s,3R,4′S)-6′-(2,2-dimethylpropyl)-3-methyl-3′,4′-dihydrospiro[cyclobutane-1,2′-pyrano[2,3-b]pyridin]-4′-yl)amino)-1-((4-fluorophenyl)methyl)-2-hydroxypropyl)acetamide]",5.7 nM
8,CC(=O)N[C@@H](Cc1cc(F)cc(F)c1)[C@@H](O)CN[C@H]1CC2(CCC2)Oc2c1cc(Cl)cc2-n1cccn1 [compound 786],1370 nM

# Continued, values first:
row,IC50,SMILES
1,571 nM,CC(=O)N[C@@H](Cc1cc(F)cc(F)c1)[C@H](O)CN[C@H]1CC2(CCC2)Oc2cc(F)c(Br)cc21 [compound 801]
2,100 nM,CC(=O)N[C@@H](Cc1c(F)cc(F)cc1F)[C@H](O)CN[C@H]1CC2(CCC2)Oc2ncc(CC(C)(C)C)cc21 [compound 813]
3,116 nM,CC(=O)N[C@@H](Cc1cc(F)cc(F)c1)[C@H](O)CN[C@H]1CC2(CCC2)Oc2cc(F)c(N[C@@H]3CCOC3)cc21 [compound 803]
4,8.68 nM,CC(=O)N[C@@H](Cc1cccc(F)c1F)[C@H](O)CN[C@H]1CC2(CCC2)Oc2ncc(CC(C)C)cc21 [compound 850]
5,26.2 nM,CC(=O)N[C@@H](Cc1ccc(Cl)c(F)c1)[C@H](O)CN[C@H]1CC2(CCC2)Oc2ncc(CC(C)C)cc21 [compound 857]
6,106 nM,CC(=O)N[C@@H](Cc1ccc(F)c(F)c1)[C@H](O)CN[C@H]1CC2(CCC2)Oc2ncc(CC(F)(F)F)cc21 [compound 842]
7,151 nM,CC(=O)N[C@@H](Cc1ccc(F)cc1)[C@H](O)CN[C@H]1CC2(CCC2)Oc2nc(F)c(CC(C)C)cc21 [compound 854]
8,2630 nM,CC(=O)N[C@@H](CC1CCCN(C)C1)[C@H](O)CN[C@H]1CC2(CCC2)Oc2ncc(CC(C)(C)C)cc21 (stereo partly shown) [compound 829]
9,≥ 10000 nM,CC(=O)N[C@H](Cc1cccc(Cl)c1F)[C@H](O)CN[C@H]1CC2(CCC2)Oc2ncc(CC(C)(C)C)cc21 [compound 866]
10,52.7 nM,CC(=O)N[C@@H](Cc1ccc(Cl)cc1)[C@H](O)CN[C@H]1CC2(CCC2)Oc2ncc(CC(C)C)cc21 [compound 858]
11,45.4 nM,CC(=O)N[C@@H](Cc1ccc(F)cc1)[C@H](O)CN[C@H]1CC(C)(C)Oc2cnc(CC(C)(C)C)cc21 [compound 799]
12,224 nM,CC(=O)N[C@@H](Cc1c(F)cc(F)cc1F)[C@H](O)CN[C@H]1CC2(CCC2)Oc2ncc(CC(C)C)cc21 [compound 815]
13,3.56 nM,CC(=O)N[C@@H](Cc1cc(F)cc(F)c1)[C@H](O)CN[C@H]1CC(C)(C)Oc2cnc(CC(C)(C)C)cc21 [compound 800]
14,137 nM,CC(=O)N[C@@H](Cc1ccc(F)c(F)c1F)[C@H](O)CN[C@H]1CC2(CCC2)Oc2ncc(CC(C)C)cc21 [compound 816]

# — patent publication US7973047B2, “Beta-Secretase modulators and methods of use” (Amgen Inc., priority 2010, dated 2011)
